Data reported in PubChem BioAssay (NCI).
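Briefly, cells in 96-well plates were exposed to five compound concentrations for 48 h, and endpoints were estimated by linear interpolation. At the TGI there is no net growth.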

Assays:
Experiment in all cases: DTP human tumour cell line panel, 48 h
[1] = test system: 786-0 renal
[2] = test system: A549 NSCLC
[3] = test system: CAKI-1 renal
[4] = test system: CCRF-CEM leukemia
[5] = test system: HCT-116 colon
[6] = test system: MOLT-4 leukemia
[7] = test system: SF-539 CNS
[8] = test system: SK-MEL-5 melanoma
[9] = test system: TK-10 renal
[10] = test system: MDA-MB-435
[11] = test system: T-47D breast

Row | SMILES | TGI [1] [µM] | TGI [2] [µM] | TGI [3] [µM] | TGI [4] [µM] | TGI [5] [µM] | TGI [6] [µM] | TGI [7] [µM] | TGI [8] [µM] | TGI [9] [µM] | TGI [10] [µM] | TGI [11] [µM]
1 | O=C1C(Cl)C(c2ccc(O)cc2)N1n1cnc2ccccc2c1=O (stereo unspecified) | > 100 | > 100 | > 60.3 | > 100 | 33 | 93.4 | > 100 | > 100 | > 100 | – | –
2 | Cc1cc2c(cc1Cl)SC(NNCCO)=NS2(=O)=O | > 100 | – | > 100 | > 100 | > 100 | > 100 | > 100 | > 100 | > 100 | > 100 | > 100
3 | Cc1cc(C)c(NS(=O)c2ccc(Cl)cc2)c(C)c1 (stereo unspecified) | > 100 | > 100 | – | > 100 | > 100 | > 100 | > 100 | – | > 100 | > 100 | > 100
4 | Cc1cc(NS(=O)(=O)c2ccc(NO)cc2)no1 | > 100 | > 100 | > 100 | 44.7 | > 100 | > 100 | > 100 | > 100 | > 100 | 41.4 | –
5 | CN1CCCS/C1=C1/SC(=S)N(c2ccccc2)C1=O | > 100 | > 100 | > 100 | > 100 | > 100 | > 100 | > 100 | > 100 | > 100 | – | –
6 | O=C1CSC(c2ccccc2)N1c1ccc(-c2ccc(-n3c(-c4ccccc4)nc4ccccc4c3=O)cc2)cc1 (stereo unspecified) | > 100 | > 100 | > 100 | > 100 | – | > 100 | – | > 100 | > 100 | > 100 | > 100
7 | COC(=O)c1cc(/C=C/C(=O)Cc2ccccc2)cn1S(=O)(=O)c1ccccc1 | > 100 | > 100 | > 100 | > 100 | > 100 | > 100 | > 100 | > 100 | > 100 | – | > 100
8 | CN1N=C(c2ccncc2)OC1c1cccc(F)c1 (stereo unspecified) | > 100 | > 100 | – | > 100 | > 100 | > 100 | > 100 | > 100 | > 100 | > 100 | > 100
9 | CC(=Nc1ccc(Cl)cc1)c1ccncc1 | > 100 | > 100 | > 100 | > 100 | > 100 | > 100 | 77.9 | > 100 | – | > 100 | > 100
10 | O=C(Nn1c(-c2ccccc2)nc2ccccc2c1=O)c1cccc([N+](=O)[O-])c1 | > 100 | > 100 | – | > 100 | > 100 | > 100 | > 100 | > 100 | > 100 | > 100 | > 100
11 | O=c1[nH]c(=O)n([C@H]2C[C@@H](CO)[C@@H](O)C2)cc1I | > 100 | > 100 | > 100 | > 100 | > 100 | > 100 | > 100 | > 100 | > 100 | – | –
12 | C1=NN2C(c3ccccc3)=NOC2C2C(c3ccccc3)=NOC12 (stereo unspecified) | > 100 | > 100 | > 100 | – | > 100 | – | > 100 | > 100 | > 100 | – | –
13 | COC(=O)C(=O)C(C(=O)OC)C(=O)C(=O)Nc1cc(Cl)c(C)cc1S(=O)(=O)O (stereo unspecified) | > 100 | > 100 | > 100 | > 100 | > 100 | > 100 | > 100 | > 100 | > 100 | – | –
14 | N#Cc1c(C#N)c(SSc2c(C#N)c(C#N)c(N)n2-c2cccc3ccccc23)n(-c2cccc3ccccc23)c1N | 4.26 | 43.7 | 29.5 | – | 14.1 | > 100 | 35.7 | 41.8 | 40.9 | 36.5 | 5.47
15 | N#Cc1c(-c2ccccc2)cn(C(=O)c2ccccc2)c1N | > 100 | > 100 | – | > 100 | > 100 | > 100 | – | > 100 | > 100 | > 100 | –
16 | COc1cccc(CCn2c(N)c(-c3cc(Cl)cc(Cl)c3)c3ccc([N+](=O)[O-])cc3c2=O)c1 | > 100 | > 100 | 41.7 | – | 12.7 | > 100 | > 100 | 9.07 | > 100 | > 100 | > 24.8
17 | O=c1ccn(C/C=C/c2ccccc2)c(=S)n1C/C=C/c1ccccc1 | > 100 | > 100 | > 100 | 62.9 | > 100 | 92.6 | – | > 100 | > 100 | > 100 | > 100
18 | COc1nc(=O)[nH]c2c1C(c1ccc([N+](=O)[O-])cc1)c1c(OC)nc(=O)[nH]c1O2 | > 100 | > 100 | > 100 | > 100 | > 100 | > 100 | – | > 100 | > 100 | > 100 | –
19 | Cc1c(-c2coc(-c3ccc([N+](=O)[O-])cc3)n2)c(=O)n(-c2ccccc2)n1C | > 100 | > 100 | – | > 100 | > 100 | > 100 | > 100 | > 100 | > 100 | – | –
20 | CN(C)c1n2c3ccc([N+](=O)[O-])cc3n3c(N(C)C)[n+]4ccccc4c3c2c2cccc[n+]12 | > 100 | > 100 | > 100 | > 100 | > 100 | > 100 | – | > 100 | > 100 | > 100 | > 100
21 | Nc1c(F)c(F)c2c(c1F)N(CCCCCl)c1ccccc1S2 | > 100 | > 100 | > 100 | > 100 | > 100 | > 100 | > 100 | > 100 | > 100 | – | > 100
22 | N#CCCC(C#N)(C#N)CCC#N | > 100 | > 100 | – | – | > 100 | > 100 | > 100 | > 100 | > 100 | – | –

Row | SMILES | TGI [1] [µM] | TGI [2] [µM] | TGI [3] [µM] | TGI [4] [µM] | TGI [5] [µM] | TGI [6] [µM] | TGI [7] [µM] | TGI [8] [µM] | TGI [9] [µM] | TGI [10] [µM] | TGI [11] [µM]
23 | Nc1c(S(=O)(=O)O)cc(S(=O)(=O)O)c2ccc(N=Nc3ccccc3)c(O)c12 | > 100 | > 100 | > 100 | > 100 | > 100 | – | > 100 | > 100 | > 100 | > 100 | > 100
24 | CCOC(=O)c1c2ccccc2n2c(=O)n(-c3ccc(OC)cc3)nnc12 | 51.1 | > 100 | > 79.9 | > 62.4 | > 100 | – | 45.6 | > 100 | > 84.5 | > 100 | 92.7
25 | COP12(OC)NC(=O)OC1(C(F)(F)F)c1ccccc1O2 (stereo unspecified) | > 100 | > 100 | – | > 100 | > 100 | > 100 | > 100 | > 100 | > 100 | – | –
26 | CCOC(=O)/C(C1=NCCN1C)=C(\O)c1ccccc1 | > 100 | > 100 | > 100 | > 100 | > 100 | > 100 | – | > 100 | – | – | –
27 | Cc1nc(C)c(N2CCN(Cc3ccccc3)CC2)c(=O)[nH]1 | > 100 | > 100 | – | > 100 | > 100 | > 100 | > 100 | > 100 | > 100 | > 100 | > 100
28 | N#Cc1ccc(C2OCC3CC=CCC3CO2)cc1 (stereo unspecified) | > 100 | > 100 | > 100 | > 100 | > 100 | > 100 | > 100 | 49 | – | – | –
29 | CCCCC/C=C\C=C\CCCCCCCCC(=O)OC | > 100 | > 100 | > 100 | – | > 100 | > 100 | > 100 | > 100 | > 100 | – | > 100
30 | c1cc2c(cc1C1OCC3C(c4ccc5c(c4)OCO5)OCC13)OCO2 (stereo unspecified) | > 100 | > 100 | – | > 100 | > 100 | > 100 | > 100 | 83.7 | > 100 | – | –
31 | COc1ccc(/C=C2/SC(=Nc3ccccc3)N(NC(=O)Cc3ccccc3)C2=O)cc1 | > 100 | > 100 | – | > 100 | > 100 | > 100 | > 100 | > 100 | > 100 | > 100 | > 100
32 | COc1ccc(/C(C)=C2\CCCN(Cc3ccccc3)C2)cc1 | 33.9 | 86 | 58.4 | 62.2 | – | 59.8 | 35.2 | 36.8 | > 100 | 51.6 | 77
33 | Cc1cn(CC(=S)NCCc2c[nH]c3ccccc23)c(=O)[nH]c1=O | > 100 | > 100 | – | > 100 | > 100 | > 100 | > 100 | > 100 | – | > 100 | > 100
34 | CN1CCS(=O)(=O)NC(Cc2ccccc2)C(=O)N2CCCC2C1=O (stereo unspecified) | > 100 | > 100 | > 100 | > 100 | > 100 | > 100 | > 100 | > 100 | > 100 | – | –
35 | CC(C)CCNC(=O)c1ccc(CNC(=O)/C=C/c2ccc3ccccc3c2)cc1 | > 100 | > 100 | > 100 | – | > 100 | > 100 | – | > 100 | – | > 100 | > 100
36 | COc1ccccc1N1CCN(S(=O)(=O)c2ccc(Cl)cc2)C1=N | > 100 | > 100 | > 100 | – | > 100 | > 100 | > 100 | > 100 | > 100 | > 100 | > 100
37 | Nc1ccc(Oc2ccc(C34CC5C6CC7(c8ccc(Oc9ccc(N)cc9)cc8)CC5C(C3)C(C7)C6C4)cc2)cc1 | > 100 | > 100 | > 100 | > 100 | > 100 | > 100 | – | > 100 | > 100 | > 100 | > 100
38 | CC(C)CC(N)C(=O)NC(CNC(CCC(N)=O)C(=O)NC(CC(C)C)C(=O)NC(CC(C)C)C(=O)O)Cc1ccc2ccccc2c1 (stereo unspecified) | > 10 | > 10 | > 10 | > 10 | > 10 | > 10 | > 10 | > 10 | > 10 | > 10 | –
39 | COc1cc2ccnc(C#N)c2cc1OCc1ccccc1 | > 100 | > 100 | > 100 | > 100 | > 100 | > 100 | > 100 | > 100 | > 100 | – | –
40 | COc1cc2c(cc1NC(=O)c1ccccc1)c1c(n2S(=O)(=O)c2ccccc2)CCN(S(=O)(=O)c2ccccc2)C1 | > 100 | > 100 | – | > 100 | > 100 | > 100 | – | > 100 | – | > 100 | > 100
41 | CN1C(=O)C(=Cc2ccc(Br)cc2)C(=O)N(C)C1=O | > 100 | > 100 | > 100 | > 100 | > 100 | > 100 | – | > 100 | > 100 | > 100 | > 100
42 | Cc1nn(CNc2ccc(F)c(Cl)c2)c(=S)n1/N=C/c1ccc(-c2ccc(Cl)cc2Cl)o1 | 29 | – | 35.8 | 18.5 | 30.7 | 6.59 | 34.8 | 35.1 | 28.9 | 39 | 58.8
43 | O=[N+]([O-])C(C(Cl)=C(Cl)Cl)=C(N1CCCCC1)N1CCCCC1 | > 100 | > 100 | > 100 | > 100 | > 100 | > 100 | > 100 | > 100 | > 100 | – | > 100
44 | CCn1c2ccccc2c2ccc(C3C4C(=O)N(c5cccc6ccccc56)C(=O)C4ON3C(C(N)=O)c3ccccc3)cc21 (stereo unspecified) | > 25 | > 25 | 11.3 | – | > 25 | > 25 | > 25 | > 25 | 21.8 | > 25 | > 25
